In patent publication US20120284809A1, “KNOCK DOWN MODEL OF DICKKOPF HOMOLOGUE 3 (Dkk3) FOR ASSESSING ROLE OF SAID Dkk3 IN SPERMATOGENESIS AND SEX REVERSAL” (National Institute of Immunology, priority 2011, published 2012):

System: spermatogenesis in Dkk3 knock down model
Test: Testosterone replacement in Dkk3 knock down model
Format: in vivo, non human vertebrate
Conditions: 5 mg intramuscularly
Protocol: Serum testosterone concentrations from the Dkk3 knock down model and wild-type can be assessed at 10 weeks of age. Blood can be obtained through retro orbital bleeding before sacrificing the model. Serum testosterone can be assayed using a modified testosterone immunoassay (RIA) system in triplicate. […] For testosterone replacement, Dkk3 knock down model can be injected intramuscularly with 5 mg of testosterone undecanoate. Controls may be injected with castor oil. Blood can be taken after one month of the injection and serum testosterone levels may be measured.

`CCCCCCCCCCC(=O)O[C@H]1CC[C@H]2[C@@H]3CCC4=CC(=O)CC[C@]4(C)[C@H]3CC[C@]12C` [testosterone undecanoate] was tested, and the “Sperm counts vs Dkk3 knock down model” value (not up to wild type control levels) was “marginal increase” and the “degree of spermatogenesis tubule disruption (histology) vs castor oil treated controls” value (one month) was “did not showed any improvement”.
